Our source for the IC50 and solubility values is ChEMBL document CHEMBL1140913, “Discovery and structure-activity relationships of trisubstituted pyrimidines/pyridines as novel calcium-sensing receptor antagonists” (J Med Chem, 2009).

Each structure is given as a SMILES string. ≈ marks a conversion by molar mass, not a printed value. Some results are limits rather than exact numbers.

One series concerns the target T1, Extracellular calcium-sensing receptor (Homo sapiens, UniProt P41180).
T1 sequence (P41180 whole entry): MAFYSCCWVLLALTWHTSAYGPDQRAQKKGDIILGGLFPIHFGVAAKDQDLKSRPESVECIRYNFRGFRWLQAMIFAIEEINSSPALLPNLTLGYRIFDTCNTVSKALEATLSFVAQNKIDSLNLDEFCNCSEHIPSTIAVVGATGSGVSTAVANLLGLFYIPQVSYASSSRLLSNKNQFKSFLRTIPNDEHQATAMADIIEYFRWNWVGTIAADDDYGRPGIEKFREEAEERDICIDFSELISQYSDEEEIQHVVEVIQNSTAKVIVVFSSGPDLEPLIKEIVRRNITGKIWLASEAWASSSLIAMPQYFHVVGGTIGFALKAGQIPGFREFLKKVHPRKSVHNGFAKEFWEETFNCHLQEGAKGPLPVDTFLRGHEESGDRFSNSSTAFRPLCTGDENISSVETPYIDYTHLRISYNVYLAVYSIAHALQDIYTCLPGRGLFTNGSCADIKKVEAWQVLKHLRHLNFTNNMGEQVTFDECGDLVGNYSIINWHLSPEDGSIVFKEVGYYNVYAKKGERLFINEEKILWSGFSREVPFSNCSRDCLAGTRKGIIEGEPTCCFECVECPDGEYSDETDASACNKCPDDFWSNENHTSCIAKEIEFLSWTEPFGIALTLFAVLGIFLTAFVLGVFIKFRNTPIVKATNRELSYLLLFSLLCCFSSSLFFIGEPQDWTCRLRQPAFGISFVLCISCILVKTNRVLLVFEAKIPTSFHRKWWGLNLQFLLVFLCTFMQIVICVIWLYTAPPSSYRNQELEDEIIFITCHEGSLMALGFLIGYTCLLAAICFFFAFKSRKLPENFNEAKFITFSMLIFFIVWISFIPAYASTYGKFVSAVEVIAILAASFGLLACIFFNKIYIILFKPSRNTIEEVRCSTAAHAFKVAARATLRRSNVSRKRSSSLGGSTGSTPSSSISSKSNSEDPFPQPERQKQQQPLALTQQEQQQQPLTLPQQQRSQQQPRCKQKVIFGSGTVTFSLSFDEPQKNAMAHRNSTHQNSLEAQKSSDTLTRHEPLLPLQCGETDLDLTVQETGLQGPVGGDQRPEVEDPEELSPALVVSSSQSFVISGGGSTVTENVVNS
Kind of series: Antagonist activity at calcium-sensing receptor expressed in HEK293 cells by FLIPR assay. Format: functional, cell-based.
What is called IC50 is the concentration that inhibits the measured activity by half. For `COc1cc(-c2nc(NCc3ccc4c(c3)OCO4)ccc2C(=O)NCCOc2ccccc2)cc(OC)c1OC`, the 50% inhibitory concentration (IC50) was determined as 130 nM.

In the case of `COc1cc(-c2nc(NCc3ccccc3C)ncc2C(=O)NCCOc2ccccc2)cc(OC)c1OC`, the half-maximal inhibitory concentration (IC50) was 10000 nM.

Regarding `COc1cc(-c2nc(NCc3ccccc3Cl)ncc2C(=O)NCCOc2ccccc2)cc(OC)c1OC`, the half-inhibitory concentration (IC50) was 4900 nM.

Regarding `COc1cc(-c2nc(NCc3ccccc3)ncc2C(=O)NCCOc2ccccc2)cc(OC)c1OC`, the IC50 was determined as 730 nM.

On to `COc1cc(-c2nc(NCCC(C)C)ncc2C(=O)NCCOc2ccccc2)cc(OC)c1OC`, for which the IC50 is 2200 nM.

Take `COc1ccc(-c2nc(NCc3ccc4c(c3)OCO4)ncc2C(=O)NC(C)Cc2ccc(Cl)cc2)c(OC)n1` (stereo not drawn): the IC50 worked out at 150 nM.

Regarding `CCN(Cc1ccccc1)c1ccc(C(=O)NCCOc2ccccc2)c(-c2cc(OC)c(OC)c(OC)c2)n1`, the IC50 is 154 nM.

For `CCN(Cc1ccccc1)c1ccc(C(=O)NCCOc2ccccc2)c(-c2ccc(OC)nc2OC)n1`, the IC50 is 1050 nM.

With `COc1cc(-c2nc(N[C@H](CO)Cc3ccccc3)ccc2C(=O)NCCOc2ccccc2)cc(OC)c1OC`, the IC50 was 76 nM.

Turning to `COc1ccc(-c2nc(NCc3ccc4c(c3)OCO4)ccc2C(=O)NCCOc2ccccc2)c(OC)n1`, the IC50 was found to be 60 nM.

As for `COc1ccc(-c2nc(NCc3ccc4c(c3)OCO4)ncc2C(=O)N2CCc3ccccc3C2)c(OC)n1`, the 50% inhibitory concentration (IC50) came out at 360 nM.

On to `COc1ccc(-c2nc(NCc3ccc4c(c3)OCO4)ncc2C(=O)NCCOc2ccccc2)c(OC)n1`, for which the IC50 is 220 nM.

In the case of `COc1ccc(-c2nc(NCc3cccc(Cl)c3)ccc2C(=O)NCCOc2ccccc2)c(OC)n1`, the IC50 is 197 nM.

Consider `COc1cc(OC)cc(-c2nc(N(C)Cc3ccccc3)ncc2C(=O)NCCOc2ccccc2)c1`, for which the IC50 was above 30000 nM.

For `CCN(Cc1ccccc1)c1ncc(C(=O)NCCOc2ccccc2)c(-c2ccc(OC)nc2OC)n1`, the IC50 came to 360 nM.

As to `CCN(Cc1ccccc1)c1ncc(C(=O)NCCCc2ccccc2)c(-c2cc(OC)c(OC)c(OC)c2)n1`, the half-maximal inhibitory concentration (IC50) was 2100 nM.

For `CCN(Cc1ccccc1)c1ncc(C(=O)NCCc2ccccc2)c(-c2cc(OC)c(OC)c(OC)c2)n1`, the IC50 was above 30000 nM.

For the compound `COc1cc(-c2nc(N[C@@H](CO)Cc3ccccc3)ncc2C(=O)NCCOc2ccccc2)cc(OC)c1OC`, the 50% inhibitory concentration (IC50) is above 30000 nM.

Turning to `CN(Cc1ccccc1)c1ncc(C(=O)NCCOc2ccccc2)c(-c2ccc(C(F)(F)F)cc2)n1`, the IC50 amounted to 18900 nM.

As for `COc1ccc(-c2nc(N(C)Cc3ccccc3)ncc2C(=O)NCCOc2ccccc2)cc1`, the IC50 is above 30000 nM.

Consider `COc1cccc(-c2nc(N(C)Cc3ccccc3)ncc2C(=O)NCCOc2ccccc2)c1`, for which the IC50 was above 30000 nM.

For `COc1ccccc1-c1nc(N(C)Cc2ccccc2)ncc1C(=O)NCCOc1ccccc1`, the IC50 was above 30000 nM.

With `CCN(Cc1ccccc1)c1ncc(C(=O)NCCOc2ccccc2)c(C2CCCCC2)n1`, the IC50 was above 30000 nM.

Take `CCN(Cc1ccccc1)c1ncc(C(=O)NCCOc2ccccc2)c(-c2ccccc2)n1`: the IC50 was above 30000 nM.

For the compound `COc1ccc(-c2nc(N(C)Cc3ccccc3)ncc2C(=O)NCCOc2ccccc2)cc1OC`, the half-inhibitory concentration (IC50) was determined as 6900 nM.

Regarding `COc1cc(-c2nc(NCc3ccccn3)ncc2C(=O)NCCOc2ccccc2)cc(OC)c1OC`, the IC50 is above 30000 nM.

As for `COc1cccc(CNc2ncc(C(=O)NCCOc3ccccc3)c(-c3cc(OC)c(OC)c(OC)c3)n2)c1`, the IC50 worked out at 340 nM.

For the compound `COc1cc(-c2nc(NCc3cccc(Cl)c3)ncc2C(=O)NCCOc2ccccc2)cc(OC)c1OC`, the IC50 came to 70 nM.

For `COc1cc(-c2nc(NCCc3cccnc3)ncc2C(=O)NCCOc2ccccc2)cc(OC)c1OC`, the concentration for half-maximal inhibition (IC50) was above 30000 nM.

Turning to `COc1cc(-c2nc(NCCc3ccccn3)ncc2C(=O)NCCOc2ccccc2)cc(OC)c1OC`, the IC50 was above 30000 nM.

In the case of `COc1cccc(CCNc2ncc(C(=O)NCCOc3ccccc3)c(-c3cc(OC)c(OC)c(OC)c3)n2)c1`, the 50% inhibitory concentration (IC50) is 1000 nM.

As to `COc1ccccc1CCNc1ncc(C(=O)NCCOc2ccccc2)c(-c2cc(OC)c(OC)c(OC)c2)n1`, the half-inhibitory concentration (IC50) was 340 nM.

With `COc1cc(-c2nc(N(C)CCc3ccccc3)ncc2C(=O)NCCOc2ccccc2)cc(OC)c1OC`, the IC50 was found to be 1500 nM.

For `COc1cc(-c2nc(NCCc3ccccc3)ncc2C(=O)NCCOc2ccccc2)cc(OC)c1OC`, the half-maximal inhibitory concentration (IC50) amounted to 400 nM.

As for `COc1cc(-c2nc(N[C@H](CO)Cc3ccccc3)ncc2C(=O)NCCOc2ccccc2)cc(OC)c1OC`, the IC50 worked out at 150 nM.

On to `CCN(Cc1ccccc1)c1ncc(C(=O)NCCOc2ccccc2)c(-c2cc(OC)c(OC)c(OC)c2)n1`, for which the IC50 is 200 nM.

Regarding `COc1cc(-c2nc(NCc3ccc4c(c3)OCO4)ncc2C(=O)NCCOc2ccccc2)cc(OC)c1OC`, the IC50 was determined as 150 nM.

In the case of `COc1cc(-c2nc(N(C)Cc3ccccc3)ncc2C(=O)NCCOc2ccccc2)cc(OC)c1OC`, the IC50 stood at 470 nM.

For `CCN(Cc1ccccc1)c1ncc(C(=O)NCCCCc2ccccc2)c(-c2cc(OC)c(OC)c(OC)c2)n1`, the IC50 amounted to 1800 nM.

In the case of `COc1cc(-c2nc(NCc3cccc(Cl)c3)ccc2C(=O)NCCOc2ccccc2)cc(OC)c1OC`, the concentration for half-maximal inhibition (IC50) was 162 nM.

With `COc1ccc(-c2nc(N[C@H](CO)Cc3ccccc3)ccc2C(=O)NCCOc2ccccc2)c(OC)n1`, the IC50 is 140 nM.

In the case of `COc1cc(-c2nc(NCc3cccnc3)ncc2C(=O)NCCOc2ccccc2)cc(OC)c1OC`, the IC50 was above 30000 nM.

Regarding `COc1ccc(CNc2ncc(C(=O)NCCOc3ccccc3)c(-c3cc(OC)c(OC)c(OC)c3)n2)cc1`, the half-inhibitory concentration (IC50) was determined as 3100 nM.

Regarding `COc1ccc(CCNc2ncc(C(=O)NCCOc3ccccc3)c(-c3cc(OC)c(OC)c(OC)c3)n2)cc1`, the IC50 turned out to be 2800 nM.

System in another series: not listed separately
The series is described as follows: Aqueous solubility at pH 6.5. Format: physicochemical.
One may read the solubility as the dissolved amount per volume that the medium holds. High values mean a readily soluble substance, low ones a poorly soluble substance. Regarding `CCN(Cc1ccccc1)c1ncc(C(=O)NCCOc2ccccc2)c(-c2cc(OC)c(OC)c(OC)c2)n1`, the solubility is below 1 µg/mL.

Compound `COc1ccc(-c2nc(N[C@H](CO)Cc3ccccc3)ccc2C(=O)NCCOc2ccccc2)c(OC)n1` gave a solubility of 11 µg/mL (≈ 20.8 µM).

System in a further series: not listed separately
Kind of series: Aqueous solubility at pH 4.5. Format: physicochemical.
On to `CCN(Cc1ccccc1)c1ncc(C(=O)NCCOc2ccccc2)c(-c2cc(OC)c(OC)c(OC)c2)n1`, for which the solubility was below 1 µg/mL.

Compound `COc1ccc(-c2nc(N[C@H](CO)Cc3ccccc3)ccc2C(=O)NCCOc2ccccc2)c(OC)n1` came in with a solubility of 36 µg/mL (≈ 68.1 µM).
